The results in this text go back to ChEMBL document CHEMBL5257119, “New insight into the bioactivity of substituted benzimidazole derivatives: Repurposing from anti-HIV activity to cell migration inhibition targeting hnRNP M” (Bioorg Med Chem, 2023).

The source made the active and inactive calls. The rule behind the calls is not given here.

Test [1] concerns A549. The test can be described thus: Cytotoxicity against human A549 cells assessed as reduction in cell growth at 20 uM measured for 2 days by MTT assay. The format is functional, cell-based. The conditions noted are these: time 2.0 day.
The subject of test [2] is A549. The experiment in a line: Antimigratory activity against TGFbeta-stimulated human A549 cells assessed as inhibition of cell migration at 20 uM measured for 1 day by cell scratch assay. The format is functional, cell-based.
In test [3] the test system is A549. The test can be described thus: Downregulation of Vimentin mRNA expression in human A549 cells at 20 uM measured for 1 day bt RT-qPCR analysis. Type of test: functional, cell-based.
Test [4] concerns A549. The test can be described thus: Downregulation of E-cadherin mRNA expression in human A549 cells at 20 uM measured for 1 day bt RT-qPCR analysis. Type of test: functional, cell-based.
The test system of test [5] is A549. The experiment in a line: Antimigratory activity against TGFbeta-stimulated human A549 cells assessed as inhibition of cell migration at 10 uM measured for 1 day by cell scratch assay. The format is functional, cell-based.
For test [6], the target named is T1, Heterogeneous nuclear ribonucleoprotein M (Homo sapiens) (UniProt P52272).
T1 sequence (whole entry): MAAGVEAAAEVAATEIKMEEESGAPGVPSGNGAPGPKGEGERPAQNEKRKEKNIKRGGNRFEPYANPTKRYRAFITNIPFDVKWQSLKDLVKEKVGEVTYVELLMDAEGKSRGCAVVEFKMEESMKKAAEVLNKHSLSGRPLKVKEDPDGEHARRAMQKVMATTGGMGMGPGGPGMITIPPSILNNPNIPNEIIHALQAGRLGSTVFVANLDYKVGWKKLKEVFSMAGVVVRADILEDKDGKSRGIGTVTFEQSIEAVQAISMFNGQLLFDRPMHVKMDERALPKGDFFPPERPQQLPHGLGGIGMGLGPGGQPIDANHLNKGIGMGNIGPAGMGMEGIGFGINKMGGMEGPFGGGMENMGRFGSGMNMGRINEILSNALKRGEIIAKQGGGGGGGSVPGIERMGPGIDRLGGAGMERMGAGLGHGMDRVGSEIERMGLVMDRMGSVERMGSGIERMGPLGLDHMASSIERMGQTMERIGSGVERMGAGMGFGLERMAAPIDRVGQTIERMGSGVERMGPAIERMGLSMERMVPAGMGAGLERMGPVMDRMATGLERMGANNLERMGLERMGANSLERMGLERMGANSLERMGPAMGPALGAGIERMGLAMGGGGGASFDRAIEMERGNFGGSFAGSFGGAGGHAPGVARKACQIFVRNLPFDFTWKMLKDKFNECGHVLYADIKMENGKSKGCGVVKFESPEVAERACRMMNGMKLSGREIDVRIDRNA
The experiment in a line: Competitive inhibition of hnRNP M to in human A549 cells at 50 uM by immunoblotting analysis. Type of test: cell-based. (In general: In western blotting, separated proteins are transferred to a membrane and probed.)

Test [7] relates to A549. The experiment in a line: Downregulation of CD44 mRNA expression in human A549 cells at 20 uM measured for 1 day bt RT-qPCR analysis. Type of test: functional, cell-based. In general terms: Quantitative PCR measures a nucleic acid by following its amplification.
Test [8] concerns A549. The test can be described thus: Antimigratory activity against TGFbeta-stimulated human A549 cells assessed as inhibition of cell migration at 1 uM measured for 1 day by cell scratch assay. Type of test: functional, cell-based.
The subject of test [9] is A549. The experiment in a line: Antimigratory activity against TGFbeta-stimulated human A549 cells assessed as inhibition of cell migration measured for 1 day by cell scratch assay. The format is functional, cell-based.
The subject of test [10] is A549. The test can be described thus: Downregulation of Zeb 1 mRNA expression in human A549 cells at 20 uM measured for 1 day bt RT-qPCR analysis. The format is functional, cell-based.

Consider `N#Cc1ccc(CSc2nc3ccccc3n2-c2ccccc2)cc1`, for which, in the test with A549 [1], the result was inactive. In the test on A549 [2], the result was Active.

With `Cc1noc(C)c1CSc1nc2ccccc2[nH]1`, the outcome in the test on A549 [3], in the test with A549 [4], in the test with A549 [2], with A549 [5] and in the test with A549 [7] was Active. For the same compound, the result in the test on A549 [1] was inactive. Besides, in test [6], the “inhibition call (active/inactive)” value was “Active”.

With `c1ccc(-n2c(SCc3nc4ccccc4s3)nc3ccccc32)cc1`, in the test with A549 [1], the outcome was inactive.

For the compound `COc1ccc(CSc2nc3ccccc3n2-c2ccccc2)cc1`, the result in the test with A549 [1] was inactive.

For `Cc1noc(C)c1CSc1nc2ccccc2s1`, the result in the test with A549 [1] was inactive.

For `c1ccc2[nH]c(SCc3nc4ccccc4s3)nc2c1`, the outcome with A549 [3], with A549 [4], in the test with A549 [2], in the test on A549 [5], in the test on A549 [7] and with A549 [8] was Active. The outcome in the test on A549 [1] was inactive. Also, the “inhibition call (active/inactive)” value in test [6] is “Active”.

`Cn1c(SCc2nc3ccccc3s2)nc2ccccc21`: the result with A549 [1] was inactive.

As for `Cc1noc(C)c1CSc1nc2ccccc2n1C`, the outcome in the test with A549 [1] was inactive.

Take `Cc1noc(C)c1CSc1nc2ccccc2n1-c1ccccc1`: the outcome in the test on A549 [1] and in the test with A549 [9] was inactive.

Turning to `Cc1noc(C)c1CSc1nc2cc(Cl)c(Cl)cc2[nH]1`, the result in the test with A549 [10], in the test on A549 [3], in the test with A549 [4], in the test with A549 [2], with A549 [5] and in the test with A549 [7] was Active. In addition, in the test on A549 [1], the outcome was inactive. In addition, the “inhibition call (active/inactive)” value in test [6] is “Active”.

For the compound `Cc1ccnc(SCc2nc3ccccc3s2)n1`, the result with A549 [1] was inactive. The outcome in the test with A549 [5] was Active. Also, the inhibition result in test [6] is “Active”.

Regarding `c1ccc(-n2c(SCc3ccccn3)nc3ccccc32)cc1`, the outcome in the test with A549 [1] was inactive.

As to `c1ccc(CSc2nc3ccccc3n2-c2ccccc2)cc1`, the outcome in the test with A549 [1] was inactive.
